Data: patent US20090035306A1 (KALYPSYS, INC., priority 2006, published 2009)

Experiments:
Mice [1] = assay: Glucose-stimulated insulin secretion (GTT/insulin test, insulin ELISA); format: in vivo, mouse; conditions: 30 mg/kg; for Plasma Insulin, AUC, Mean: glucose-stimulated insulin secretion, in ng·min/mL (unit assumed)
Procedure: (§1) Vehicle is CMC-Tween: 0.5% CMC+0.25% Tween 20 at an appropriate ml/kg. Dextrose dose per mouse=2 g dextrose/kg made from 0.5 g/ml stock dextrose solution. Compound 1 dose per mouse=30 mg/kg in CMC/Tween vehicle made from 4 mg/mL stock solution by adding 50 μL DMSO to 20 mg Compound 1, stirring to make a paste, adding 1 ml CMC/Tween with stirring, sonicating for 8 minutes on energy 05, and adjusting to 5 ml with CMC/Tween.
Mice (5 per group) were fasted at 6 am for an experiment at noon. Blood glucose was measured from tail nick blood using an Accucheck—Compact Monitoring Kit (Roche Diagnostics, Indianapolis Ind.). Baseline (time=−15 min) blood glucose concentration was determined for all mice and tail nick blood samples were collected. 2 g/kg dextrose (Hospira, Lake Forest, Ill.) was administered orally at time 0. […] Terminal blood samples were collected from portal vein draws in three mice at t=20. Blood plasma was harvested from blood collected in EDTA microvettes by centrifugation (10 min at […]). Plasma was stored in −80 C freezer to be analyzed for other chemistry measurements.
A Mercodia ultrasensitive mouse insulin ELISA kit (Mercodia AB, Uppsala, Sweden) was used in a 96-well coated plate. All reagents and samples were brought to room temperature before use, Calibrator concentrations were 0.07, 0.13, 0.25, 0.63, 1.9, 5.2, 13.0, and 64.0 μg/L, and a calibration curve was prepared for each assay run. To 25 μL calibrator 0 in each well was added 5 μL calibrators and 5 μL of samples/standards in duplicate, then 50 μL dilute enzyme conjugate 11× in enzyme conjugate buffer. This was incubated on a shaker for 2 hours at room temperature (18-25° C.), and each well was washed 5 times in 350 μL wash buffer and aspirated completely. After final wash, plate was inverted and tapped firmly against absorbent paper. 200 μL substrate TMB was added to each well and incubated for 30 minutes. 50 μL stop solution was added to each well, and the plate was placed on the shaker for about 5 seconds to ensure mixing of substrate and stop Solution. Absorbance was measured at 450 nm.

Mice [2] = assay: In vivo GLP-1 secretion (GLP-1 protocol and GLP-1 assay); parameters: species or system mouse; conditions: 30 mg/kg, portal vein blood
Procedure: as §1
Mice (3 per group) were fasted at 6 am for an experiment at noon. Blood glucose was measured from tail nick blood using an Accucheck—Compact Monitoring Kit (Roche Diagnostics, Indianapolis Ind.). Baseline (time=−15 min) blood glucose concentration was determined for all mice. 2 g/kg dextrose (Hospira, Lake Forest, Ill.) was administered orally at time 0. Terminal blood samples were collected from the mice via portal vein draw (˜500 μL) into EDTA microtainer tubes at the following time points: −15, 0, 3, 6, 9, 12, 15, 20, 30 and 120 min. […] Plasma was stored in −80 C freezer to be analyzed for other chemistry measurements.
A GLP-1(Human, Mouse, Rat) ELA kit was used (ALPCO Diagnostics, Salem, N.H., Cat # 48-GLP-1-160) was used in a 96-well plate. […] 100 μl/well stop solution was added to each well to stop reaction, optical absorbance of wells read at 490 nm, and results calculated.

[3] = 2 g/kg dextrose orally at time 0, time 20 min
[4] = 2 g/kg dextrose orally at time 0, time −15 min (baseline)

O=c1c2ccccc2nc(-c2ccc(F)cc2)n1NCc1ccc(Br)cc1 [Example 1]
Plasma Insulin, Mean (Mice [1]; 2 g/kg dextrose orally at time 0, time 0 min): 1.56 ng/mL
Plasma Insulin, Mean (Mice [1]; 2 g/kg dextrose orally at time 0, time 3 min): 2.35 ng/mL
Plasma Insulin, Mean (Mice [1]; 2 g/kg dextrose orally at time 0, time 6 min): 3.24 ng/mL
Plasma Insulin, Mean (Mice [1]; 2 g/kg dextrose orally at time 0, time 9 min): 3.94 ng/mL
Plasma Insulin, Mean (Mice [1]; 2 g/kg dextrose orally at time 0, time 12 min): 4.18 ng/mL
Plasma Insulin, Mean (Mice [1]; 2 g/kg dextrose orally at time 0, time 15 min): 4.05 ng/mL
Plasma Insulin, Mean (Mice [1]; [3]): 3.79 ng/mL
Plasma Insulin, Mean (Mice [1]; 2 g/kg dextrose orally at time 0, time 30 min): 1.82 ng/mL
Plasma Insulin, Mean (Mice [1]; 2 g/kg dextrose orally at time 0, time 60 min): 1.23 ng/mL
Plasma Insulin, Mean (Mice [1]; 2 g/kg dextrose orally at time 0, time 120 min): 1.17 ng/mL
Plasma Insulin, Mean (Mice [1]; [4]): 1.78 ng/mL
Plasma Insulin, AUC, Mean (Mice [1]; 0-15 min): 35.15
Plasma Insulin, AUC, Mean (Mice [1]; 0-30 min): 68.39
Plasma GLP-1, Mean (Mice [2]; [3]): 9.61 ng/mL
Plasma GLP-1, Mean (Mice [2]; [4]): 6.30 ng/mL
